Measured values published in patent US10925890B2, “Use of dextran sulfate” (TX MEDIC AB, priority 2014, dated 2021).
Entries after “also recorded” stand apart in the source; their conditions may differ.

Assays:
Assay type in all cases: in vivo
[1] = Adverse effects, rat hind-limb ischemia study; conditions: 30 and 3 mg/kg s.c., 3 times a week or single dose
Method: (§1) Animals in group 4M and 5M were injected s.c. once on Day 8, see Table 12.
In the present study blood flow improvement in the rat hind-limb ischemia model was examined in order to evaluate the efficacy of dextran sulfate in two different doses and treatment regimes. […] Both doses and administration regimens were efficacious. No spontaneous amputations or toe necrosis occurred in any of the treated or control animal groups. […] Collectively the data of this study confirmed the therapeutic efficacy of dextran sulfate for the treatment of occlusive peripheral arterial disease in the rat hind-limb ischemia model.

[2] = test system: Rat Hind-Limb Ischemia Model; test: Ischemic severity (necrosis grades), rat hind-limb ischemia; conditions: all groups incl. vehicle; Day 7 up to Day 28
Method: The femoral artery and vein were ligated twice with 4-0 silk thread and transected between the ligatures. The wound was closed with 3-0 silk thread and the rats were allowed to recover.
as §1

tMCAO rat-stroke model = test: Body swing test, tMCAO rat; conditions: all treated rats; day 7 up to day 28
Method: Transient middle cerebral artery occlusion was performed according to the method previously described in Stroke 29, 2162-2170 (1998). The right common carotid artery (CCA) was exposed through a midline neck incision and carefully dissected free from surrounding nerves and fascia—from its bifurcation to the base of the skull. The occipital artery branches of the external carotid artery (ECA) were then isolated, and these branches were dissected and coagulated. The ECA was dissected further distally and coagulated along with the terminal lingual and maxillary artery branches, which was then divided. The internal carotid artery (ICA) was isolated and carefully separated from the adjacent vagus nerve, and the pterygopalatine artery was ligated close to its origin with a 5-0 nylon suture (SMI, Belgium). […]
The rat was held approximately one inch from the base of its tail. […] A swing was recorded whenever the rat moves its head out of the vertical axis to either side. Before attempting another swing, the rat was returned to the vertical position for the next swing to be counted. Twenty total swings were counted. […] Body swing scores were expressed as a percentage of rightward over total swings. […]

[3] = test system: Critical Hind-Limb Ischemia Mouse Model; test: Blood flow by non-contact laser Doppler, mouse hind-limb ischemia; conditions: for folds increase in the mean blood flow due to dextran sulfate treatment: vs vehicle control 1M; for Mean change in blood flow day 35 vs. day 1: operated limb, vehicle 19.5
Method: Blood flows in legs from both sides were measured with a non-contact laser Doppler before surgery on day −1 and on days: 1, 7, 14, 21, 28 and 35 post operation. Blood flow measurements was expressed as the ratio of the flow in the ischemic limb to that in the normal limb.

[4] = test system: Critical Hind-Limb Ischemia Mouse Model; test: Immunohistochemistry and capillaries density (CD34, SMA, FITC-dextran), mouse hind-limb ischemia
Method: Mice were sacrificed at study termination on day 36. Fluorescein isothiocyanate (FITC)—dextran 500000 Da conjugate 10 mg/ml was injected i.v. in a dose of 200 μl per mouse 5 minutes before sacrifice to all animals. Quadriceps muscle was dissected into coronary part. The muscle was fixed in 2.5% fresh paraformaldehyde (pH 7.4) for 24 hours and was then embedded in the paraffin for smooth muscle actin (SMA) with mouse monoclonal antibodies (anti-SMA Ab-1, clone 1A4, 1:800, Thermo scientific) and CD34 with anti CD34 (1:200, Cedralene) immunostaining. Paraffin embedding was done according the standard embedding procedure.
Stained sections were evaluated and photographed by fluorescence microscope (E600; Nikon, Tokyo, Japan) equipped with plan fluor objectives connected to a CCD camera (DMX1200F; Nikon). […] Digital images were collected and analyzed using Image Pro+ software. Four sections of muscle samples were taken from the same areas of eight animals from groups 1M, 3M and 4M. The area of blood vessels was measured. Density was expressed as the mean number of capillaries per field of view. Total vessels represent all blood vessels in the measured area.

[5] = test system: rat model of myocardial infarction; test: Infarct size (Masson's trichrome), rat myocardial infarction model; conditions: 35 days after MI induction
Method: The myocardial infarction model in rat involved ligations of the left coronary artery permanently with an intramural stitch. The surgery caused obstruction of the blood flow and subsequently to severe ischemic damage and cardiac walls infarct.
On the day of surgery the animals were anesthetized with a combination of 90 mg/kg ketamine and 10 mg/kg xylazine. In order to induce MI, under anesthesia and analgesia, the rat chest was opened by left thoracotomy, the pericardium was removed and the proximal left coronary artery was permanently occluyded with an intramural stitch (Circulation 117, 1388-1396 (2008)). Two hours post surgery, each animal in all treated groups were injected s.c. with dextran sulfate or saline vehicle according to Table 11.
On day 36 after MI induction, the rats were sacrificed by CO2 inhalation and the hearts were harvested and fixed in 4% buffered Formalin solution. […]
For the purpose of MI size identification, Masson's Trichrome Staining was used. […] The sections were visualized in a computer-imaging system and infarct size was marked and calculated using the ImageJ program. Infarct size was expressed as percentage of infarct area (unstained) versus the total left ventricle area. For each animal, five serial sections including one containing the ligature were analyzed and the mean value of all sections for each heart was calculated. […]

[6] = Mortality and clinical signs, tMCAO rat study; conditions: for Rats that died within 10 hours after dosing: vehicle group 1M: 6
Method: Started two hours after occlusion (immediately after reperfusion), animals in groups 2M and 3M (dextran sulfate at doses of 30 mg/kg three times a week or 15 mg/kg daily) and animals in group 1M (vehicle control) were injected subcutaneously, see Table 10.
Eighteen rats died during the study. One rat died just after reperfusion before dosing, and seventeen rats within 10 hours after dosing (6 in group 1M, 6 in group 2M and 5 in group 3M).

Substance: Dextran sulfate
- Adverse effects in the treated animals [1]: did not cause any adverse effects
- Toe necrosis or foot amputation [2]: no toe necrosis or foot amputation was found
- Body swing test compared to vehicle control (tMCAO rat-stroke model): statistically significant improvement
- Blood perfusion compared to the vehicle treated control ([3]; 30 mg/kg s.c. three times a week or once a week): significantly restored blood perfusion
- folds increase in the mean blood flow due to dextran sulfate treatment ([3]; group 2M, 10 mg/kg 3 times/week): 2.2 folds
- Mean change in blood flow day 35 vs. day 1 ([3]; group 2M, 10 mg/kg s.c. 3 times/week): 46.7 units
- folds increase in the mean blood flow due to dextran sulfate treatment ([3]; group 3M, 30 mg/kg 3 times/week): 3.0 folds
- Mean change in blood flow day 35 vs. day 1 ([3]; group 3M, 30 mg/kg s.c. 3 times/week): 59.3 units
- folds increase in the mean blood flow due to dextran sulfate treatment ([3]; group 4M, 30 mg/kg 1 time/week): 2.8 folds
- Mean change in blood flow day 35 vs. day 1 ([3]; group 4M, 30 mg/kg s.c. 1 time/week): 51.1 units
- Angiogenesis in ischemic (right) vs non-ischemic (left) limb ([4]; CD34 and FITC-dextran capillaries density, FIG. 4): only induce angiogenesis in the ischemic tissue
- Number of CD34 positive capillaries compared to control group ([4]; groups 3M and 4M (30 mg/kg) vs 1M, day 35): larger
- FITC-dextran staining of capillaries (functional capillaries) ([4]; groups 3M and 4M, ischemic limb): functioning and active
- SMA staining, capillaries formation ([4]; treated groups vs control): same increase in capillaries formations
- Infarct size / infarct volume, treatment group 2M vs control group 1M ([5]; 15 mg/kg s.c. 3 times a week for 3 weeks): significant difference; also recorded: significantly decreased the infarct volume
- Average infarct size compared to untreated control group ([5]; all treatment groups (15 or 3 mg/kg s.c.)): smaller average infarct size
- Adverse clinical signs ([6]; all animal groups): No adverse clinical signs unrelated to the model
- Rats that died within 10 hours after dosing ([6]; group 2M, 30 mg/kg s.c. 3 times a week): 6 rats
- Rats that died within 10 hours after dosing ([6]; group 3M, 15 mg/kg s.c. daily): 5 rats
